Earlier results in PMC3178464 (Bioorganic & medicinal chemistry, 2009).

System: ER

17α-ethynylestradiol [EE2]
affinity for ER relative to E2: nearly three-fold higher affinity
